These results are taken from publication PMC7320011, “Rationally designed ruthenium complexes for 1- and 2-photon photodynamic therapy” (Nature Communications, 2020).

A short description of data set [1]: In vivo tolerability: body weight, behaviour, H&E histology. Details: species or system mouse. The note with it: 2 mg kg^−1 i.v. The procedure: (§1) The mice were anesthetized by injection of a 4% chloral hydrate aqueous solution (0.2 mL, 20 g^−1) before the treatment. The tumor volume and body weight were measured and recorded every 2 days. Tumor volume was calculated by the following formula:6 Volume=Length×Width^2/2.
The tumor and all major organs (including the heart, liver, spleen, lung, kidney, brain, intestine, and blood) were collected and a slice of each one was fixated with 4% paraformaldehyde. The obtained slices were stained with hematoxylin and eosin. The histological images were taken with a Carl Zeiss Axio Imager Z2 microscope.

Data set [2] is described as follows: In vivo time-dependent biodistribution (ICP-MS). The settings on record: chloride salt, SW620/AD300 tumor-bearing nude mice. Details: species or system mouse. As to the method:
(§2) Six weeks old nu/nu female mice were purchased from Charles River. For the tumor xenograft, 6 × 10^6 SW620/AD300 cells were subcutaneously (s.c.) injected with a 150 μL Matrigel and saline (1:1, v/v) suspension into the mice. After a week, the tumor volumes of the mice reached ~80 mm^3. All experiments were conducted in compliance with the ethical regulations for animal testing and received approval of the experimental animal managing committee of Sun Yat Sen University.
Three nude mice were tail-intravenous (i.v.) injected with 2 mg kg^−1 of the sample. One hour later, the mice were sacrificed and the major organs (including the heart, liver, spleen, lung, kidney, brain, intestine, and blood) were separated, weighted and ground. The grinded organ as well as the blood were digested using a 60% HNO3 solution for 3 days, and following this, diluted to a 2% HNO3 solution in water. The Ru content was determined with an ICP-MS apparatus and the results compared with the Ru references.
Six SW620/AD300 nude tumor-bearing nude mice were separated into three groups, and i.v. injected with 2 mg kg^−1 of the sample. 30 min, 1 h, 2 h later, the mice were euthanized and the distribution of the sample determined using the previous described method.

The nature of the next data set: Excited state lifetime. Type of data set: physicochemical. As to the method: The sample was prepared in an air saturated as well as a degassed acetonitrile solution with an absorption of 0.2 at 355 nm. The sample was irradiated at 355 nm with a NT342B Nd-YAG pumped optical parametric oscillator (Ekspla). The emission was focused at right angle to the excitation pathway and directed to a Princeton Instruments Acton SP-2300i monochromator. The signal was detected with a R928 photomultiplier tube (Hamamatsu).

The next data set has as its system HeLa MCTS. Briefly: (Photo-)cytotoxicity on 3D MCTS (ATP concentration). Type of data set: cell-based, human. The note with it: for IC50: 1-3 as chloride salts. The procedure: The cytotoxicity of the compounds in 3D MCTS was assessed by measurement of the ATP concentration. MCTS were treated with increasing concentrations of the compound (2% DMSO, v%) by replacing 50% of the media with drug supplemented media and incubation for 12 h. After this time, the MCTS were divided in three identical groups. The first group was strictly kept in the dark. The second group was exposed to a 1-Photon irradiation (500 nm, 16.7 min, 10.0 mW cm^−2, and 10 J cm^−2) using a LED light source and the third group was exposed to a 2-Photon irradiation (800 nm, 10 J cm^−2 with a section interval of 5 μm) using a LSM 880 (Carl Zeiss, Germany) laser scanning confocal microscope equipped with a Coherent Chameleon 2-Photon laser. After the irradiation, all groups were incubated additional 48 h. The ATP concertation was measured using a CellTiter-Glo 3D Cell Viability kit (Promega) by measuring the generated chemiluminescence with an infinite M200 PRO (Tecan) plate reader.

Data set [3] deals with doxorubicin-selected P-gp-overexpressing human colon cancer tumor (SW620/AD300). Kind of data set: In vivo PDT on tumor-bearing nude mice. On the set-up: species or system mouse. The note with it: chloride salt, 2 mg kg^−1 i.v. The procedure:
as §2
30 SW620/AD300 nude tumor-bearing nude mice were randomly separated into six groups, resulting in five mice for each group. After been anaesthetized, the mice was fixed in a warm three-axes holder. Before irradiation, the tumor site was disinfected with ethanol. The tumor was exposed to 1P or 2P light. Following the irradiation, the operative area was disinfection by iodophor.
Group 1: injected 7 (2 mg kg^−1, 50 μL) intravenously and irradiate under 800 nm laser (50 mW, 1 kHz, pulse width 35 fs, 5 s mm^−1) 1 h after injection; […]
as §1

For data set [4], the system named is human cervical carcinoma (HeLa) cells. Kind of data set: (Photo-)cytotoxicity on 2D cell monolayers, HeLa. The note with it: for IC50: 1-3 as chloride salts. It is filed as cell-based.
Method: A total of 4 × 10^3 cells were seeded on 96-well plates and allowed to adhere overnight. The cells were treated with increasing concentrations of the sample diluted in cell media achieving a total volume of 200 μL. The cells were incubated with the sample for 8 h and, after this time, the medium refreshed. To study the phototoxic effect of the sample, the cells were exposed to 480 nm (spectral half-width: 20 nm, 10 min, 5.2 mW cm^−2, 3.1 J cm^−2) or 540 nm (spectral half-width: 30 nm, 40 min, 4.0 mW cm^−2, 9.5 J cm^−2) light using an Atlas Photonics LUMOS BIO irradiator. To study the dark cytotoxicity of the sample, the cells were not irradiated and the medium exchanged. The cells were grown for an additional 40 h at 37 °C. After this time, the medium was replaced with fresh medium containing resazurin with a final concentration of 0.2 mg mL^−1. The cells were incubated for 4 h and the amount of the fluorescent product resorufin determined (λex = 540 nm, λem = 590 nm) with a SpectraMax M2 Microplate Reader (Molecular Devices). The obtained data was analyzed with the GraphPad Prism software.

Structures are written as SMILES. “And” between values parts separate entries of the source, which are not always exact repeats. Identical values can stand only once. Like-named read-outs stand apart in the source and are kept apart here.

The term IC50 denotes the concentration that gives 50% inhibition. `COc1ccc(/C=C/c2ccnc(-c3cc(/C=C/c4ccc(OC)cc4)ccn3)c2)cc1.F[P-](F)(F)(F)(F)F.F[P-](F)(F)(F)(F)F.[Ru+2].c1ccc(-c2ccccn2)nc1.c1ccc(-c2ccccn2)nc1` [compound 7, [Ru(2,2′-bipyridine)2((E,E′)-4,4′-Bis[p-methoxystyryl]-2,2′-bipyridine)][PF6]2]: the “histology of all other organs (H&E)” value in data set [1] (exposed to light) was “did not show any significant effect”. Moreover, the “histology of tumor tissue (H&E)” value in data set [1] (exposed to light) is “pathological alterations caused by the PDT treatment”. Moreover, the “behaviour of treated mice” value in data set [1] (nude mice) is on record as “behaved normally, without signs of pain, stress or discomfort”. For the same compound, in data set [1] (nude mice), the “body weight of treated mice” value was “did not lose or gain weight”. For the same compound, in data set [2] (2 mg kg^−1 i.v. tail injection), the “time until absorbed from the blood stream” value was no more than 1 h. The “organ accumulation (Ru content)” value in data set [2] (2 mg kg^−1 i.v.) was “high accumulation in the intestine and some accumulation in the tumor”. Further, the “τ air, excited state lifetime” value in the data set “Excited state lifetime” (air saturated acetonitrile) was determined as 96 ns. Also, in the data set “Excited state lifetime” (degassed acetonitrile), the “τ degassed, excited state lifetime” value was 542 ns. Further, the IC50 in the data set with HeLa MCTS (1P 500 nm, read-out: IC50 1P irradiation (500 nm, 10 J cm-2)) was > 6.8 µM and 6.8 µM; with HeLa MCTS (2P 800 nm, section interval 5 μm, read-out: IC50 2P irradiation (800 nm, 10 J cm-2)), > 1.4 µM and 1.4 µM; in the data set with HeLa MCTS (dark, read-out: IC50 dark), greater than 300 µM; in data set [4] (480 nm, read-out: IC50 480 nm (10 min, 3.1 J cm-2)), 1.2 µM; in data set [4] (540 nm, read-out: IC50 540 nm (40 min, 9.5 J cm-2)), 1.5 µM; in data set [4] (dark, read-out: IC50 dark), greater than 100 µM. Also, the “PI (1P irradiation)” value with HeLa MCTS (dark vs 500 nm) is > 44 and > 44.1. In addition, in the data set on HeLa MCTS (dark vs 800 nm), the “PI (2P irradiation)” value is > 250 and > 214.3. Also, the “tumor growth after one PDT treatment” value in data set [3] (1P (500 nm, 36 J cm^−2) or 2P (800 nm, 50 mW) irradiation 1 h after injection, 80 mm^3 tumor) is recorded as “drastically shrank until they were nearly eradicated”. Further, the “tumor growth without irradiation” value in data set [3] (dark) is recorded as “kept growing”. The “PI (480 nm)” value in data set [4] (dark vs 480 nm) is greater than 83.3. Further, the “PI (540 nm)” value in data set [4] (dark vs 540 nm) is listed as greater than 66.7.
